In the NIST ThermoML archive (doi:10.1016/j.jct.2006.05.008):

Assay: molar heat capacity at constant pressure
Details: 101.33 kPa

CCC[n+]1ccn(C)c1.[Br-] [1-methyl-3-propylimidazolium bromide]
Details | molar heat capacity at constant pressure [J/K/mol]
244.42 K, Liquid, Small (less than 1 g) adiabatic calorimetry | 265
244.52 K, Crystal, Vacuum adiabatic calorimetry | 198.49
244.94 K, Crystal, Vacuum adiabatic calorimetry | 198.95
245.29 K, Metastable crystal, Small (less than 1 g) adiabatic calorimetry | 199.04
245.35 K, Liquid, Small (less than 1 g) adiabatic calorimetry | 265.6
245.89 K, Crystal, Vacuum adiabatic calorimetry | 199.57
246.52 K, Liquid, Small (less than 1 g) adiabatic calorimetry | 265.56
246.54 K, Liquid, Small (less than 1 g) adiabatic calorimetry | 266.09
247.02 K, Crystal, Vacuum adiabatic calorimetry | 200.86
247.27 K, Crystal, Vacuum adiabatic calorimetry | 200.82
247.37 K, Liquid, Small (less than 1 g) adiabatic calorimetry | 266.15
247.66 K, Metastable crystal, Small (less than 1 g) adiabatic calorimetry | 201.1
248.62 K, Liquid, Small (less than 1 g) adiabatic calorimetry | 266.07
248.65 K, Crystal, Vacuum adiabatic calorimetry | 202.17
248.84 K, Liquid, Small (less than 1 g) adiabatic calorimetry | 267.47
249.1 K, Crystal, Vacuum adiabatic calorimetry | 202.81
249.39 K, Liquid, Small (less than 1 g) adiabatic calorimetry | 266.73
250.02 K, Crystal, Vacuum adiabatic calorimetry | 203.57
250.02 K, Metastable crystal, Small (less than 1 g) adiabatic calorimetry | 203.18
250.73 K, Liquid, Small (less than 1 g) adiabatic calorimetry | 266.58
251.18 K, Crystal, Vacuum adiabatic calorimetry | 204.9
251.4 K, Crystal, Vacuum adiabatic calorimetry | 204.98
251.41 K, Liquid, Small (less than 1 g) adiabatic calorimetry | 267.3
251.54 K, Crystal, Vacuum adiabatic calorimetry | 205.96
252.37 K, Metastable crystal, Small (less than 1 g) adiabatic calorimetry | 205.32
252.77 K, Crystal, Vacuum adiabatic calorimetry | 206.43
252.83 K, Liquid, Small (less than 1 g) adiabatic calorimetry | 267.16
253.26 K, Crystal, Vacuum adiabatic calorimetry | 207.11
253.43 K, Liquid, Small (less than 1 g) adiabatic calorimetry | 267.81
254.71 K, Metastable crystal, Small (less than 1 g) adiabatic calorimetry | 207.8
254.93 K, Liquid, Small (less than 1 g) adiabatic calorimetry | 267.63
255.35 K, Crystal, Vacuum adiabatic calorimetry | 209.48
255.45 K, Liquid, Small (less than 1 g) adiabatic calorimetry | 268.35
257.03 K, Liquid, Small (less than 1 g) adiabatic calorimetry | 268.27
257.05 K, Metastable crystal, Small (less than 1 g) adiabatic calorimetry | 210.12
257.43 K, Crystal, Vacuum adiabatic calorimetry | 211.8
257.47 K, Liquid, Small (less than 1 g) adiabatic calorimetry | 268.84
259.14 K, Liquid, Small (less than 1 g) adiabatic calorimetry | 268.9
259.38 K, Metastable crystal, Small (less than 1 g) adiabatic calorimetry | 212.62
259.49 K, Liquid, Small (less than 1 g) adiabatic calorimetry | 269.39
259.52 K, Crystal, Vacuum adiabatic calorimetry | 214.55
260.55 K, Crystal, Vacuum adiabatic calorimetry | 216.79
261.24 K, Liquid, Small (less than 1 g) adiabatic calorimetry | 269.33
261.52 K, Liquid, Small (less than 1 g) adiabatic calorimetry | 269.97
261.6 K, Crystal, Vacuum adiabatic calorimetry | 217.5
261.65 K, Liquid, Small (less than 1 g) adiabatic calorimetry | 270.17
261.69 K, Metastable crystal, Small (less than 1 g) adiabatic calorimetry | 215.45
263.34 K, Liquid, Small (less than 1 g) adiabatic calorimetry | 269.95
263.54 K, Liquid, Small (less than 1 g) adiabatic calorimetry | 270.5
263.69 K, Crystal, Vacuum adiabatic calorimetry | 220.52
263.7 K, Liquid, Small (less than 1 g) adiabatic calorimetry | 270.42
264 K, Metastable crystal, Small (less than 1 g) adiabatic calorimetry | 218.39
265.44 K, Liquid, Small (less than 1 g) adiabatic calorimetry | 270.58
265.56 K, Liquid, Small (less than 1 g) adiabatic calorimetry | 271.1
265.73 K, Liquid, Small (less than 1 g) adiabatic calorimetry | 270.91
265.77 K, Crystal, Vacuum adiabatic calorimetry | 223.78
266.29 K, Metastable crystal, Small (less than 1 g) adiabatic calorimetry | 221.46
267.55 K, Liquid, Small (less than 1 g) adiabatic calorimetry | 271.24
267.58 K, Liquid, Small (less than 1 g) adiabatic calorimetry | 271.73
267.75 K, Liquid, Small (less than 1 g) adiabatic calorimetry | 271.67
267.85 K, Crystal, Vacuum adiabatic calorimetry | 227.51
268.56 K, Metastable crystal, Small (less than 1 g) adiabatic calorimetry | 224.85
269.36 K, Crystal, Vacuum adiabatic calorimetry | 231.51
269.61 K, Liquid, Small (less than 1 g) adiabatic calorimetry | 272.26
269.67 K, Liquid, Small (less than 1 g) adiabatic calorimetry | 271.61
269.77 K, Liquid, Small (less than 1 g) adiabatic calorimetry | 272.2
269.93 K, Crystal, Vacuum adiabatic calorimetry | 231.49
